Data from US5747235A, “Silver halide light sensitive emulsion layer having enhanced photographic sensitivity” (Eastman Kodak Company, priority 1996, dated 1998).
Where a name gives a salt, the structure may show the parent alone.

Columns and labels:
[1] = Example 13: photographic speed and fog, 365 nm exposure, cubic emulsion C-3; settings: for Fog / S365: 0.02 x10^-3 mol/mol Ag
Description: (§1) For photographic evaluation, each of the coating strips was exposed for 0.1 sec to a 365 nm emission line of a Hg lamp filtered through a Kodak Wratten filter number 18A and a step wedge ranging in density from 0 to 4 density units in 0.2 density steps. The exposed film strips were developed for 6 min in Kodak Rapid X-ray Developer (KRX). S365, relative sensitivity at 365 nm, was evaluated at a density of 0.2 units above fog.
A chloride containing cubic emulsion with uniform halide distribution was precipitated using deionized gelatin. Emulsion C-3 was an AgClI emulsion with a 1.5% I content and a cubic edge length of 0.36 μm. The emulsion was chemically sensitized by adding 15 mg of Au2 S/mole Ag using a gelatin dispersion. The chemical sensitizer was added to the emulsion at 40° C., the temperature was then raised to 60° C. and the emulsion held for 20 min before cooling back to 40° C. These experimental coating variations contained the hydroxybenzene, 2,4-disulfocatechcol (HB3) at a concentration of 13 mmole/mole Ag, added to the melt before the addition of any further compounds. Some of the variations were then dyed with the sensitizing dye D-I, added from methanol solution. The fragmentable electron donor compound S-9 was then added to the emulsion melts at 40° C. and coatings were prepared and tested as described in Example 1 except that the additional gelatin used to prepare the coatings described in Table XIII was deionized gelatin.

[2] = Example 14: blue light sensitivity and fog after post-exposure bath, emulsion T-1; settings: bathed after exposure
Description: Samples of the coating were exposed to a xenon flash of 10^-3 sec duration filtered through a 2.0 neutral density filter, Kodak Wratten filters 35 and 38A, and a step wedge ranging in density from 0 to 3 density units in 0.15 density steps. These conditions allowed only blue light to expose the coatings. After exposure, one sample of the coating was subjected to each of the following treatments:
B. Post-exposure bath for 15 min in a solution of 5.4×10^-4 M NaBr and 3.0'10^-6 M S-3 at pH=6.0. (Bath 1)
Post-exposure bath for 15 min in a solution of 5.4×10^-4 M NaBr and 1.5×10^-5 M S-3 at pH=6.0. (Bath 2)
The coatings subjected to the post-exposure baths were then rinsed to remove excess solution and all coatings were developed together for 6 min in Kodak Rapid X-ray Developer (KRX). Relative sensitivity to blue light, Sblue, was evaluated at a density of 0.15 units above fog.

[3] = Example 2: photographic speed and fog, 365 nm exposure, acids vs corresponding esters, emulsion T-1; design: Fog: unit not given here; settings: for Fog / S365: undyed; for S365: control=100
Description: This chemically sensitized emulsion was then used to prepare the experimental coating variations indicated in Table I. All of the experimental coating variations in Table I contained the hydroxybenzene 2,4-disulfocatechol (HB3) at a concentration of 13 mmole/mole Ag, added to the melt before the addition of any further addenda. The fragmentable electron donor compounds as indicated in Table I were added from an aqueous potassium bromide solution, or from a methanol solution, before additional water, gelatin, and surfactant were added to the emulsion melts.
as §1
The coatings described in Table II all contain the hydroxybenzene, 2,4-disulfocatechol (HB3) at a concentration of 13 mmole/mole Ag, added to the melt before any further addenda.

Row | Structure (SMILES) | Fog ([1]; dye I 0.61 x10^-3) | S365 ([1]; dye I 0.61 x10^-3, dyed control 74) | Fog ([1]; no dye) | S365 ([1]; no dye, control=100) | speed increase ([1]; undyed AgClI cubic emulsion) | sensitivity gain relative to unbathed coating [2] | Fog ([3]; 0.00220 x10^-3 mole/mole Ag) | S365 ([3]; 0.00220 x10^-3 mole/mole Ag) | Fog ([3]; 0.00700 x10^-3 mole/mole Ag) | S365 ([3]; 0.00700 x10^-3 mole/mole Ag) | Fog ([3]; 0.02200 x10^-3 mole/mole Ag) | S365 ([3]; 0.02200 x10^-3 mole/mole Ag) | Fog ([3]; 0.07000 x10^-3 mole/mole Ag) | Fog ([3]; 0.22000 x10^-3 mole/mole Ag) | speed and fog change ([3]; undyed T-1 emulsion)
1 | CCSCCN(c1ccccc1)C(C)C(=O)O (stereo not drawn) [Compound S-9, N-(Phenyl)-N-(2-thioethyl-ethyl)alanine sodium salt] | 0.14 | 129 | 0.15 | 118 | 1.2 X |  |  |  |  |  |  |  |  |  | 
2 | CCSCCN(c1ccc(C)cc1)[C@@H](C)C(=O)[O-].[Na+] [Compound S-3, N-(4-Methylphenyl)-N-(2-ethylthio-ethyl)alanine sodium salt] |  |  |  |  |  | ~2 X | 0.07 | 110 | 0.06 | 120 | 0.11 | 141 | 0.57 | 1.24 | both speed and fog increases
